Patent publication US9670221B2, “Furopyridines as bromodomain inhibitors” (GlaxoSmithKline Intellectual Property (No.2) Limited, priority 2013, dated 2017)
Where a name gives a salt, the structure may show the parent alone.

Molecular target: T1, BRD4 BD1 (Homo sapiens, UniProt O60885, Y390A)
T1 construct: BRD4 (1-477) (Y97A) and (Y390A); made in house; host or cells: E. coli (pET15b vector)
Experiment: TR-FRET binding assay, BRD4 BD1 (mutant protein)
Conditions: BRD4 (1-477) mutant, 10 nM protein, read-out: pIC50 in the BRD4 BD1 assay (converted)
Experimental: Time Resolved Fluorescence Resonance Energy Transfer (TR-FRET) Assay
Binding was assessed using a time resolved fluorescent resonance energy transfer binding assay. This utilises a 6 His purification tag at the N-terminal of the proteins as an epitope for an anti-6 His antibody labeled with Europium chelate (PerkinElmer AD0111) allowing binding of the Europium to the proteins which acts as the donor fluorophore. A small molecule, high affinity binder of the bromodomains BRD2, BRD3, BRD4 and BRDT has been labeled with Alexa Fluor647 (Reference Compound X) and this acts as the acceptor in the FRET pair.
Assay Principle: In the absence of a competing compound, excitation of the Europium causes the donor to emit at λ618 nm which excites the Alexa labelled bromodomain binding compound leading to an increased energy transfer that is measurable at λ647 […]. In the presence of a sufficient concentration of a compound that can bind these proteins, the interaction is disrupted leading to a quantifiable drop in fluorescent resonance energy transfer.
The binding of the compounds of formula (I) to Bromodomains BRD2, BRD3, BRD4 and BRDT was assessed using mutated proteins to detect differential binding to either Binding Domain 1 (BD1) or Binding Domain 2 (BD2) on the bromodomain. These single residue mutations in the acetyl lysine binding pocket greatly lower the affinity of the fluoroligand (Reference Compound X) for the mutated domain (>1000 fold selective for the non-mutated domain). Therefore in the final assay conditions, binding of the fluoroligand to the mutated domain cannot be detected and subsequently the assay is suitable to determine the binding of compounds to the single non-mutated bromodomain.
Protein production: Recombinant Human Bromodomains [(BRD2 (1-473) (Y113A) and (Y386A), BRD3 (1-435) (Y73A) and (Y348A) BRD4 (1-477) (Y97A) and (Y390A) and BRDT (1-397) (Y66A) and (Y309A)] were expressed in E. coli cells (in pET15b vector for BRD2/3/4 and in pET28a vector for BRDT) with a 6-His tag at the N-terminal. The His-tagged Bromodomain pellet was resuspended in 50 mM HEPES (pH7.5), 300 mM NaCl, 10 mM imidazole & 1 μl/mL protease inhibitor cocktail and extracted from the E. coli cells using sonication and purified using a nickel sepharose high performance column, the proteins were washed and then eluted with a linear gradient of 0-500 mM imidazole with buffer 50 mM HEPES (pH7.5), 150 mM NaCl, 500 mM imidazole, over 20 column volumes. Final purification was completed by Superdex 200 prep grade size exclusion column. Purified protein was stored at −80° C. in 20 mM HEPES pH 7.5 and 100 mM NaCl. Protein identity was confirmed by peptide mass fingerprinting and predicted molecular weight confirmed by mass spectrometry.
Protocol for Bromodomain BRD2, 3, 4 and T, BD1^+BD2 mutant assays: All assay components were dissolved in buffer composition of 50 mM HEPES pH7.4, 50 mM NaCl, 5% Glycerol, 1 mM DTT and 1 mM CHAPS. The final concentration of bromodomain proteins were 10 nM and the Alexa Fluor647 ligand was at Kd. These components were premixed and 5 μl of this reaction mixture was added to all wells containing 50 nl of various concentrations of test compound or DMSO vehicle (0.5% DMSO final) in Greiner 384 well black low volume microtitre plates and incubated in dark for 30 minutes at room temperature. 5 μl of detection mixture containing 1.5 nM final concentration anti-6His Europium chelate was added to all wells and a further dark incubation of at least 30 minutes was performed. Plates were then read on the Envision platereader, (λex=317 nm, donor λem=615 nm; acceptor λem=665 nm; Dichroic LANCE dual). Time resolved fluorescent intensity measurements were made at both emission wavelengths and the ratio of acceptor/donor was calculated and used for data analysis. All data was normalized to the mean of 16 high (inhibitor control—Example 11 of WO 2011/054846A1) and 16 low (DMSO) control wells on each plate. […]

## CC(=O)Nc1cc(-c2cn(C)c(=O)c3cc(C(C)(C)N4CCN(S(C)(=O)=O)CC4)oc23)ccn1 [Example 65, N-(4-(5-methyl-2-(2-(4-(methylsulfonyl)piperazin-1-yl)propan-2-yl)-4-oxo-4,5-dihydrofuro[3,2-c]pyridin-7-yl)pyridin-2-yl)acetamide]
  IC50: ≤ 0.1 µM

## Cn1cc(-c2cccc(OCc3ccccc3)c2)c2oc(CN3CCN(S(C)(=O)=O)CC3)cc2c1=O [Example 3, 7-(3-(benzyloxy)phenyl)-5-methyl-2-((4-(methylsulfonyl)piperazin-1-yl)methyl)furo[3,2-c]pyridin-4(5H)-one]
  IC50: ≤ 0.1 µM

## CC(=O)Nc1cccc(-c2cn(C)c(=O)c3cc(CN4CCN(S(C)(=O)=O)C[C@H]4C)oc23)n1 [Example 54, (R)-N-(6-(5-methyl-2-((2-methyl-4-(methylsulfonyl)piperazin-1-yl)methyl)-4-oxo-4,5-dihydrofuro[3,2-c]pyridin-7-yl)pyridin-2-yl)acetamide]
  IC50: ≤ 0.1 µM

## C[C@@H]1CN(S(C)(=O)=O)CCN1Cc1cc2c(=O)n(C)cc(-c3ccncc3OC[C@@H]3CCO3)c2o1 [Example 43, 5-methyl-2-(((R)-2-methyl-4-(methylsulfonyl)piperazin-1-yl)methyl)-7-(3-((S)-oxetan-2-ylmethoxy)pyridin-4-yl)furo[3,2-c]pyridin-4(5H)-one]
  IC50: ≤ 0.1 µM

## CC(Nc1cccc(-c2cn(C)c(=O)c3cc(CN4CCN(S(C)(=O)=O)CC4)oc23)c1)c1ccccc1 (stereo not shown) [Example 15, 5-methyl-2-((4-(methylsulfonyl)piperazin-1-yl)methyl)-7-(3-((1-phenylethyl)amino)phenyl)furo[3,2-c]pyridin-4(5H)-one]
  IC50: ≤ 0.1 µM

## C[C@@H]1CN(S(C)(=O)=O)CCN1Cc1cc2c(=O)n(C)cc(-c3ccncc3OCC3CC3)c2o1 [Example 32, (R)-7-(3-(cyclopropylmethoxy)pyridin-4-yl)-5-methyl-2-((2-methyl-4-(methylsulfonyl)piperazin-1-yl)methyl)furo[3,2-c]pyridin-4(5H)-one]
  IC50: ≤ 0.01 µM

## C[C@@H]1CN(S(C)(=O)=O)CCN1Cc1cc2c(=O)n(C)cc(-c3ccncc3OC3CC3)c2o1 [Example 73, (R)-7-(3-cyclopropoxypyridin-4-yl)-5-methyl-2-((2-methyl-4-(methylsulfonyl)piperazin-1-yl)methyl)furo[3,2-c]pyridin-4(5H)-one]
  IC50: ≤ 0.1 µM

## COCCOc1cnccc1-c1cn(C)c(=O)c2cc(CN3CCN(S(C)(=O)=O)C[C@H]3C)oc12 [Example 66, (R)-7-(3-(2-methoxyethoxy)pyridin-4-yl)-5-methyl-2-((2-methyl-4-(methylsulfonyl)piperazin-1-yl)methyl)furo[3,2-c]pyridin-4(5H)-one]
  IC50: ≤ 0.1 µM

## C[C@@H]1CN(S(C)(=O)=O)CCN1Cc1cc2c(=O)n(C)cc(-c3ccncc3NCC3CC3)c2o1 [Example 40, (R)-7-(3-((cyclopropylmethyl)amino)pyridin-4-yl)-5-methyl-2-((2-methyl-4-(methylsulfonyl)piperazin-1-yl)methyl)furo[3,2-c]pyridin-4(5H)-one]
  IC50: ≤ 0.1 µM

## C[C@@H]1CN(S(C)(=O)=O)CCN1Cc1cc2c(=O)n(C)cc(-c3ccncc3OC[C@H]3CCO3)c2o1 [Example 42, 5-methyl-2-(((R)-2-methyl-4-(methylsulfonyl)piperazin-1-yl)methyl)-7-(3-((R)-oxetan-2-ylmethoxy)pyridin-4-yl)furo[3,2-c]pyridin-4(5H)-one]
  IC50: ≤ 0.1 µM

## CC(=O)Nc1cc(-c2cn(C)c(=O)c3cc(CN4CC(C)N(S(C)(=O)=O)CC4C)oc23)ccn1 (stereo not shown) [Example 96, N-(4-(2-((2,5-dimethyl-4-(methylsulfonyl)piperazin-1-yl)methyl)-5-methyl-4-oxo-4,5-dihydrofuro[3,2-c]pyridin-7-yl)pyridin-2-yl)acetamide]
  IC50: ≤ 0.1 µM

## C[C@@H]1CN(S(C)(=O)=O)CCN1Cc1cc2c(=O)n(C)cc(-c3cccc(NC(=O)CCCCN)c3)c2o1 [Example 64, (R)-5-amino-N-(3-(5-methyl-2-((2-methyl-4-(methylsulfonyl)piperazin-1-yl)methyl)-4-oxo-4,5-dihydrofuro[3,2-c]pyridin-7-yl)phenyl)pentanamide hydrochloride]
  IC50: ≤ 0.1 µM

## CC(=O)Nc1cc(-c2cn(C)c(=O)c3cc(C(C)N4CCN(S(C)(=O)=O)CC4)oc23)ccn1 (stereo not shown) [Example 36, N-(4-(5-methyl-2-(1-(4-(methylsulfonyl)piperazin-1-yl)ethyl)-4-oxo-4,5-dihydrofuro[3,2-c]pyridin-7-yl)pyridin-2-yl)acetamide, formic acid salt]
  IC50: ≤ 0.1 µM

## Cn1cc(-c2ccc(C(=O)O)cc2OCC2CC2)c2oc(CN3CCN(S(C)(=O)=O)CC3)cc2c1=O [Example 67, 3-(cyclopropylmethoxy)-4-(5-methyl-2-((4-(methylsulfonyl)piperazin-1-yl)methyl)-4-oxo-4,5-dihydrofuro[3,2-c]pyridin-7-yl)benzoic acid]
  IC50: ≤ 0.01 µM

## CN1CCCN(Cc2cc3c(=O)n(C)cc(-c4ccncc4OCC4CC4)c3o2)CC1 [Example 56, 7-(3-(cyclopropylmethoxy)pyridin-4-yl)-5-methyl-2-((4-methyl-1,4-diazepan-1-yl)methyl)furo[3,2-c]pyridin-4(5H)-one hydrochloride]
  IC50: ≤ 0.1 µM

## C[C@@H]1CN(S(C)(=O)=O)CCN1Cc1cc2c(=O)n(C)cc(-c3ccncc3OCC(F)F)c2o1 [Example 74, (R)-7-(3-(2,2-difluoroethoxy)pyridin-4-yl)-5-methyl-2-((2-methyl-4-(methylsulfonyl)piperazin-1-yl)methyl)furo[3,2-c]pyridin-4(5H)-one]
  IC50: ≤ 0.1 µM

## Cn1cc(-c2ccncc2OCC2CC2)c2oc(CN3CCN(S(C)(=O)=O)CC3)cc2c1=O [Example 31, 7-(3-(cyclopropylmethoxy)pyridin-4-yl)-5-methyl-2-((4-(methylsulfonyl)piperazin-1-yl)methyl)furo[3,2-c]pyridin-4(5H)-one]
  IC50: ≤ 0.1 µM

## CC(Nc1cc(-c2cn(C)c(=O)c3cc(CN4CCN(S(C)(=O)=O)CC4)oc23)ccn1)c1ccccc1 (stereo not shown) [Example 14, 5-methyl-2-((4-(methylsulfonyl)piperazin-1-yl)methyl)-7-(2-((1-phenylethyl)amino)pyridin-4-yl)furo[3,2-c]pyridin-4(5H)-one]
  IC50: ≤ 0.1 µM

## C[C@@H]1CN(S(C)(=O)=O)CCN1Cc1cc2c(=O)n(C)cc(-c3ncccc3OCC3CC3)c2o1 [Example 44, (R)-7-(3-(cyclopropylmethoxy)pyridin-2-yl)-5-methyl-2-((2-methyl-4-(methylsulfonyl)piperazin-1-yl)methyl)furo[3,2-c]pyridin-4(5H)-one]
  IC50: ≤ 0.1 µM

## C[C@@H]1CN(S(C)(=O)=O)CCN1Cc1cc2c(=O)n(C)cc(-c3cccnc3NCC3CC3)c2o1 [Example 49, (R)-7-(2-((cyclopropylmethyl)amino)pyridin-3-yl)-5-methyl-2-((2-methyl-4-(methylsulfonyl)piperazin-1-yl)methyl)furo[3,2-c]pyridin-4(5H)-one]
  IC50: ≤ 0.1 µM

## Cn1cc(-c2ccnc(NCc3ccccn3)c2)c2oc(CN3CCCNCC3)cc2c1=O [Example 34, 2-((1,4-diazepan-1-yl)methyl)-5-methyl-7-(2-((pyridin-2-ylmethyl)amino)pyridine-4-yl)furo[3,2-c]pyridin-4(5H)-one hydrochloride]
  IC50: ≤ 0.1 µM

## CN1CCCN(Cc2cc3c(=O)n(C)cc(-c4cccc(NCc5ccccn5)c4)c3o2)CC1 [Example 57, 5-methyl-2-((4-methyl-1,4-diazepan-1-yl)methyl)-7-(3-((pyridin-2-ylmethyl)amino)phenyl)furo[3,2-c]pyridin-4(5H)-one hydrochloride]
  IC50: ≤ 0.1 µM
